Here are results for twelve compounds from patent US7446199B2, “Compositions useful as inhibitors of protein kinases” (Vertex Pharmaceuticals Incorporated, priority 2003, dated 2008).

One assay addresses KDR (Homo sapiens, UniProt P35968). Description: KDR enzyme assay, coupled enzyme assay. Type of assay: biochemical. To be noted: 300 μM ATP, 10 μM poly E4Y, 30 nM KDR, 37° C. In a few lines: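 Coupled enzyme (PK/LDH, NADH) assay with 30 nM KDR in 200 mM HEPES 7.5, 10 mM MgCl2, 25 mM NaCl, 1 mM DTT, 1.5% DMSO; 300 μM ATP, 10 μM poly E4Y. Compound at 30 μM final, preincubated ~10 min at 37 °C before ATP start; rates read over 5 min at 37 °C.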

In the next assay the target is GSK-3β, (AA 1-420) (Homo sapiens, UniProt P49841). Nature of the assay: GSK-3 inhibition assay, coupled enzyme system. Type of assay: biochemical. To be noted: 20 μM ATP, 300 μM peptide, 20 nM GSK-3b, 30° C.; read-out: Ki values (GSK3). In a few lines: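 Pyruvate kinase/lactate dehydrogenase-coupled NADH assay with 20 nM enzyme, 20 μM ATP and 300 μM peptide in HEPES pH 7.5, 1.5% DMSO, 30° C. Compound (0.002–30 μM, 12-point) preincubated 10 min before ATP start; rates over 10 min gave Ki.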

As usually defined, the Ki is a dissociation constant, usually derived from enzyme kinetics or from competition with a known ligand.

Chain of KDR (P35968 20-1356): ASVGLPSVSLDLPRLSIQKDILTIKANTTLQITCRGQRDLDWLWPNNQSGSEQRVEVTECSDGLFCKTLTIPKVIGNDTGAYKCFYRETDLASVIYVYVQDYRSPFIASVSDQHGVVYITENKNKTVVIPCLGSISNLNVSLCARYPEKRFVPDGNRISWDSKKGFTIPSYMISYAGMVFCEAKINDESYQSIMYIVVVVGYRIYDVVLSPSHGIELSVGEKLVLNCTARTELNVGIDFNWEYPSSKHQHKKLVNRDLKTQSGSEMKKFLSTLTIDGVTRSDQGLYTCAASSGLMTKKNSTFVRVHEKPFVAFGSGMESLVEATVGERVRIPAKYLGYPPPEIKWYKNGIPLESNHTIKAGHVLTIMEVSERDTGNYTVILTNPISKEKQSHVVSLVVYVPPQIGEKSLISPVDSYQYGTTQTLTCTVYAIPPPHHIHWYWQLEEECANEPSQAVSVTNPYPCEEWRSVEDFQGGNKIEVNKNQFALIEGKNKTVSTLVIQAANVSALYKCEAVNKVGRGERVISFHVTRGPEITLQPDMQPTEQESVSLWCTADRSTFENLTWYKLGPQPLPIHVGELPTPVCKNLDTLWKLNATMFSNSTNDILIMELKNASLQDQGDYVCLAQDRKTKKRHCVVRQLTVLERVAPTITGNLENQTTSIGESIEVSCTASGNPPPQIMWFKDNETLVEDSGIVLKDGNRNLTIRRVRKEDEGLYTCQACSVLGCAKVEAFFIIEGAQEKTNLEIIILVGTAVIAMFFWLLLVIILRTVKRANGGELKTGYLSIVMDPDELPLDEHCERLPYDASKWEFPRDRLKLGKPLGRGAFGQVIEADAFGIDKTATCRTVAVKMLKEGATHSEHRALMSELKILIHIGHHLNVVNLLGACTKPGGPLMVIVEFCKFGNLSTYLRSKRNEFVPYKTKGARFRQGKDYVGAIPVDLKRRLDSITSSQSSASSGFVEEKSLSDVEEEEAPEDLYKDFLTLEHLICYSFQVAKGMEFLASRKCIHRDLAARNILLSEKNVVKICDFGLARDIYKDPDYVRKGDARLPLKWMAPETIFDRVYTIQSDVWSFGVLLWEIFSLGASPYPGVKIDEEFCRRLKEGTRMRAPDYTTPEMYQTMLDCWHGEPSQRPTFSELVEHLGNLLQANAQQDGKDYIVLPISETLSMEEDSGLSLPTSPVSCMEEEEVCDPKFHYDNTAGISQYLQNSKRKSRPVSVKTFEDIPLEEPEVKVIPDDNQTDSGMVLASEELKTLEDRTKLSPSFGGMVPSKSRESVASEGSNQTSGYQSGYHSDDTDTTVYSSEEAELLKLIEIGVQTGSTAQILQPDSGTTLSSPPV
Chain of GSK-3β, (AA 1-420) (P49841 whole entry, the tested form may be a part): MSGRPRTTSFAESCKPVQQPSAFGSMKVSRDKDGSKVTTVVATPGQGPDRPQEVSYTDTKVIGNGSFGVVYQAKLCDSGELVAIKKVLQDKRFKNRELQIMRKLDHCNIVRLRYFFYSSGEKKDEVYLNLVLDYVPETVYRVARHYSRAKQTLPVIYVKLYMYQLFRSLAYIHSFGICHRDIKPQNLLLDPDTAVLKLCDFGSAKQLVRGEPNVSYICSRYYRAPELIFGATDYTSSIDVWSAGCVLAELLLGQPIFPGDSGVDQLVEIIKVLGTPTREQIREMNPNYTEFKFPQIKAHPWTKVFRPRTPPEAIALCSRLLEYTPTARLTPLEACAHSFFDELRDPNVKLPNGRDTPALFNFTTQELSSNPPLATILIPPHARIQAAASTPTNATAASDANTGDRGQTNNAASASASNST

For `CS(=O)(=O)Nc1ccc(-c2cnc3[nH]cc(-c4oncc4-c4cccc(F)c4F)c3c2)cc1` [Compound 98, N-(4-{3-[4-(2,3-Difluoro-phenyl)-isoxazol-5-yl]-1H-pyrrolo[2,3-b]pyridin-5-yl}-phenyl)-methane sulfonamide], the inhibition constant Ki on KDR is less than 0.2 µM; at GSK-3β, (AA 1-420), less than 0.2 µM.
With `Clc1cccc(-c2cnoc2-c2c[nH]c3ncc(-c4cccnc4)cc23)c1Cl` [Compound 99, 3-[4-(2,3-Dichloro-phenyl)-isoxazol-5-yl]-5-pyridin-3-yl-1H-pyrrolo[2,3-b]pyridine], the Ki at KDR is less than 0.2 µM; on GSK-3β, (AA 1-420), less than 0.2 µM.
As to `CNc1ccc2c(-c3oncc3-c3cccc(F)c3F)c[nH]c2n1` [Compound 102, {3-[4-(2,3-Difluoro-phenyl)-isoxazol-5-yl]-1H-pyrrolo[2,3-b]pyridin-6-yl}-methyl-amine], the Ki on KDR fell in the range of 1 to 12.5 µM; at GSK-3β, (AA 1-420) it was 1 to 12.5 µM.
Consider `COC(=O)c1cnc2[nH]cc(-c3oncc3-c3cccc(F)c3F)c2c1` [Compound 105, 3-[4-(2,3-Difluoro-phenyl)-isoxazol-5-yl]-1H-pyrrolo[2,3-b]pyridine-5-carboxylic acid methyl ester], for which the Ki on KDR is 0.2 to 1 µM; on GSK-3β, (AA 1-420), 0.2 to 1 µM.
As to `CN(C)c1ccc(-c2cnc3[nH]cc(-c4nncn4-c4cccc(F)c4F)c3c2)cc1` [Compound 106, (4-{3-[4-(2,3-Difluoro-phenyl)-4H-[1,2,4]triazol-3-yl]-1H-pyrrolo[2,3-b]pyridin-5-yl}-phenyl)-dimethyl-amine], the Ki is 0.2 to 1 µM at KDR and less than 0.2 µM at GSK-3β, (AA 1-420).
Taken in the same sequence, the figures for `Fc1cccc(-n2cnnc2-c2c[nH]c3ncc(-c4ccc(CN5CCOCC5)cc4)cc23)c1F` [Compound 109, 3-[4-(2,3-Difluoro-phenyl)-4H-[1,2,4]triazol-3-yl]-5-(4-morpholin-4-ylmethyl-phenyl)-1H-pyrrolo[2,3-b]pyridine] were 0.2 to 1 µM and less than 0.2 µM.
The corresponding values for `CN1CCN(c2ccc(-c3cnc4[nH]cc(-c5nncn5-c5cccc(F)c5F)c4c3)cc2)CC1` [Compound 110, 3-[4-(2,3-Difluoro-phenyl)-4H-[1,2,4]triazol-3-yl]-5-[4-(4-methyl-piperazin-1-yl)-phenyl]-1H-pyrrolo[2,3-b]pyridine] are 0.2 to 1 µM and 0.2 to 1 µM.
As for `CN1CCN(c2ccc(-c3cnc4[nH]cc(-c5nncn5-c5cccc(F)c5F)c4c3)cn2)CC1` [Compound 112], the Ki at KDR fell in the range of 0.2 to 1 µM; on GSK-3β, (AA 1-420), 0.2 to 1 µM.
Take `Fc1cccc(-n2cnnc2-c2c[nH]c3ncc(-c4cccnc4)cc23)c1F` [Compound 113, 3-[4-(2,3-Difluoro-phenyl)-4H-[1,2,4]triazol-3-yl]-5-pyridin-3-yl-1H-pyrrolo[2,3-b]pyridine]: the Ki was 0.2 to 1 µM at KDR and less than 0.2 µM at GSK-3β, (AA 1-420).
Taken in the same sequence, the figures for `Fc1cccc(-n2cnnc2-c2c[nH]c3ncc(-c4ccncc4)cc23)c1F` [Compound 114, 3-[4-(2,3-Difluoro-phenyl)-4H-[1,2,4]triazol-3-yl]-5-pyridin-4-yl-1H-pyrrolo[2,3-b]pyridine] were 0.2 to 1 µM and less than 0.2 µM.
The corresponding values for `Fc1cccc(-n2cnnc2-c2c[nH]c3ncc(-c4ccc(N5CCC[C@H]5CN5CCCC5)nc4)cc23)c1F` [Compound 115, 3-[4-(2,3-Difluoro-phenyl)-4H-[1,2,4]triazol-3-yl]-5-[6-(2-pyrrolidin-1-ylmethyl-pyrrolidin-1-yl)-pyridin-3-yl]-1H-pyrrolo[2,3-b]pyridine] are 1 to 12.5 µM and 0.2 to 1 µM.
Taken in the same sequence, the figures for `OC1CCN(c2ccc(-c3cnc4[nH]cc(-c5nncn5-c5cccc(F)c5F)c4c3)cn2)CC1` [Compound 116, 5′-{3-[4-(2,3-Difluoro-phenyl)-4H-[1,2,4]triazol-3-yl]-1H-pyrrolo[2,3-b]pyridin-5-yl}-3,4,5,6-tetrahydro-2H-[1,2′]bi-pyridinyl-4-ol] were 0.2 to 1 µM and 0.2 to 1 µM.
